Reference: ChEMBL document CHEMBL4308841, “Synthesis, in vitro antiproliferative activity, and kinase inhibitory effects of pyrazole-containing diarylureas and diarylamides” (Eur J Med Chem, 2018)

What was measured:
UO-31 = test: Growth inhibition of human UO31 cells assessed as cell growth at 100 uM incubated for 48 hrs by sulforhodamine B assay relative to control; format: functional; settings: UO-31, 48 h, read-out: Activity
NCI-H322M [1] = test: Growth inhibition of human NCI-H322M cells assessed as cell growth at 0.01 uM incubated for 48 hrs by sulforhodamine B assay relative to control; format: functional; settings: read-out: Activity
BT-549 [2] = test: Growth inhibition of human BT549 cells assessed as cell growth at 0.01 uM incubated for 48 hrs by sulforhodamine B assay relative to control; format: functional; settings: BT-549, 48 h, read-out: Activity
SNB-19 [3] = test: Growth inhibition of human SNB19 cells assessed as cell growth at 0.1 uM incubated for 48 hrs by sulforhodamine B assay relative to control; format: functional; settings: SNB-19, 48 h, read-out: Activity
KM12 = test: Growth inhibition of human KM12 cells incubated for 48 hrs by sulforhodamine B assay; format: functional, cell-based; settings: KM12, 48 h
NCI-H522 = test: Growth inhibition of human NCI-H522 cells assessed as cell growth at 1 uM incubated for 48 hrs by sulforhodamine B assay relative to control; format: functional; settings: NCI-H522, 48 h, read-out: Activity
MOLT-4 = test: Growth inhibition of human MOLT4 cells assessed as cell growth at 1 uM incubated for 48 hrs by sulforhodamine B assay relative to control; format: functional; settings: MOLT-4, 48 h, read-out: Activity
T47D = test: Growth inhibition of human T47D cells assessed as cell growth at 0.01 uM incubated for 48 hrs by sulforhodamine B assay relative to control; format: functional; settings: read-out: Activity
CCRF-CEM [4] = test: Growth inhibition of human CCRF-CEM cells assessed as cell growth at 100 uM incubated for 48 hrs by sulforhodamine B assay relative to control; format: functional; settings: read-out: Activity
HCT-15 = test: Growth inhibition of human HCT15 cells assessed as cell growth at 0.1 uM incubated for 48 hrs by sulforhodamine B assay relative to control; format: functional; settings: HCT-15, 48 h, read-out: Activity
SK-MEL-28 = test: Growth inhibition of human SK-MEL-28 cells assessed as cell growth at 1 uM incubated for 48 hrs by sulforhodamine B assay relative to control; format: functional; settings: SK-MEL-28, 48 h, read-out: Activity
M14 = test: Growth inhibition of human M14 cells assessed as cell growth at 0.1 uM incubated for 48 hrs by sulforhodamine B assay relative to control; format: functional; settings: M14, 48 h, read-out: Activity
BT-549 [5] = test: Growth inhibition of human BT549 cells incubated for 48 hrs by sulforhodamine B assay; format: functional, cell-based; settings: BT-549, 48 h
ACHN = test: Growth inhibition of human ACHN cells incubated for 48 hrs by sulforhodamine B assay; format: functional, cell-based
786-0 = test: Growth inhibition of human 786-0 cells incubated for 48 hrs by sulforhodamine B assay; format: functional, cell-based; settings: 786-0, 48 h
SF-295 = test: Growth inhibition of human SF295 cells assessed as cell growth at 100 uM incubated for 48 hrs by sulforhodamine B assay relative to control; format: functional; settings: SF-295, 48 h, read-out: Activity
SNB-19 [6] = test: Growth inhibition of human SNB19 cells assessed as cell growth at 100 uM incubated for 48 hrs by sulforhodamine B assay relative to control; format: functional; settings: SNB-19, 48 h, read-out: Activity
SK-MEL-2 = test: Growth inhibition of human SK-MEL-2 cells assessed as cell growth at 0.1 uM incubated for 48 hrs by sulforhodamine B assay relative to control; format: functional; settings: SK-MEL-2, 48 h, read-out: Activity
CCRF-CEM [7] = test: Growth inhibition of human CCRF-CEM cells assessed as cell growth at 0.01 uM incubated for 48 hrs by sulforhodamine B assay relative to control; format: functional; settings: read-out: Activity
U-251 = test: Growth inhibition of human U251 cells assessed as cell growth at 0.01 uM incubated for 48 hrs by sulforhodamine B assay relative to control; format: functional; settings: U-251, 48 h, read-out: Activity
MDA-MB-468 = test: Growth inhibition of human MDA-MB-468 cells assessed as cell growth at 0.01 uM incubated for 48 hrs by sulforhodamine B assay relative to control; format: functional; settings: MDA-MB-468, 48 h, read-out: Activity
SK-MEL-5 = test: Growth inhibition of human SK-MEL-5 cells assessed as cell growth at 100 uM incubated for 48 hrs by sulforhodamine B assay relative to control; format: functional; settings: SK-MEL-5, 48 h, read-out: Activity
NCI-H322M [8] = test: Growth inhibition of human NCI-H322M cells incubated for 48 hrs by sulforhodamine B assay; format: functional, cell-based
Hs-578T = test: Growth inhibition of human Hs578T cells assessed as cell growth at 0.1 uM incubated for 48 hrs by sulforhodamine B assay relative to control; format: functional; settings: read-out: Activity
HL-60(TB) = test: Growth inhibition of human HL-60(TB) cells assessed as cell growth at 0.1 uM incubated for 48 hrs by sulforhodamine B assay relative to control; format: functional; settings: HL-60, 48 h, read-out: Activity
UACC-62 = test: Growth inhibition of human UACC62 cells assessed as cell growth at 0.1 uM incubated for 48 hrs by sulforhodamine B assay relative to control; format: functional; settings: UACC-62, 48 h, read-out: Activity
OVCAR-3 = test: Growth inhibition of human OVCAR3 cells assessed as cell growth at 0.01 uM incubated for 48 hrs by sulforhodamine B assay relative to control; format: functional; settings: OVCAR-3, 48 h, read-out: Activity
SW-620 = test: Growth inhibition of human SW620 cells assessed as cell growth at 0.1 uM incubated for 48 hrs by sulforhodamine B assay relative to control; format: functional; settings: SW-620, 48 h, read-out: Activity
IGROV-1 = test: Growth inhibition of human IGROV1 cells incubated for 48 hrs by sulforhodamine B assay; format: functional, cell-based; settings: IGROV-1, 48 h
CAKI-1 = test: Growth inhibition of human Caki1 cells assessed as cell growth at 0.1 uM incubated for 48 hrs by sulforhodamine B assay relative to control; format: functional; settings: CAKI-1, 48 h, read-out: Activity
[9] = read-out: LC50 (the source's name)
[10] = read-out: pLC50 (the source's name) (converted)

## COc1cc(Cl)cc(-c2nn(-c3cccc(NC(=O)Nc4cc(C(F)(F)F)cc(C(F)(F)F)c4)c3)cc2-c2ccncc2)c1
UO-31
  growth at 100 µM: -82%
NCI-H322M [1]
  growth at 0.01 µM: 100%
BT-549 [2]
  growth at 0.01 µM: 94%
SNB-19 [3]
  growth at 0.1 µM: 87%
KM12
  IC50: 0.51 µM
KM12; read-out: GI50
  GI50: 0.606 µM
KM12; [9]
  CC50: 0.0279 µM
KM12; read-out: TGI
  TGI: 2.75 µM
KM12; read-out: pGI50 (converted)
  GI50: 0.501 µM
KM12; [10]
  CC50: 28.2 µM
KM12; read-out: pTGI (converted)
  TGI: 2.75 µM
NCI-H522
  growth at 1 µM: 18%
MOLT-4
  growth at 1 µM: 10%
T47D
  growth at 0.01 µM: 96%
CCRF-CEM [4]
  growth at 100 µM: -29%
HCT-15
  growth at 0.1 µM: 90%
SK-MEL-28
  growth at 1 µM: 46%
M14
  growth at 0.1 µM: 93%
BT-549 [5]
  IC50: 2.22 µM
BT-549 [5]; read-out: GI50
  GI50: 2.22 µM
BT-549 [5]; read-out: TGI
  TGI: 7.14 µM
BT-549 [5]; read-out: pGI50 (converted)
  GI50: 2.82 µM
BT-549 [5]; [10]
  CC50: 61.7 µM
BT-549 [5]; read-out: pTGI (converted)
  TGI: 7.08 µM
ACHN
  IC50: 0.4 µM
ACHN; read-out: GI50
  GI50: 0.397 µM
ACHN; [9]
  CC50: > 100 µM
ACHN; read-out: TGI
  TGI: 12.5 µM
ACHN; read-out: pGI50 (converted)
  GI50: 0.398 µM
ACHN; [10]
  CC50: > 100 µM
ACHN; read-out: pTGI (converted)
  TGI: 12.6 µM
786-0
  IC50: 0.57 µM
786-0; read-out: GI50
  GI50: 0.558 µM
786-0; [9]
  CC50: 0.0631 µM
786-0; read-out: TGI
  TGI: 2.17 µM
786-0; read-out: pGI50 (converted)
  GI50: 0.562 µM
786-0; [10]
  CC50: 6.31 µM
786-0; read-out: pTGI (converted)
  TGI: 2.19 µM
SF-295
  growth at 100 µM: -63%
SNB-19 [6]
  growth at 100 µM: -42%
SK-MEL-2
  growth at 0.1 µM: 95%
CCRF-CEM [7]
  growth at 0.01 µM: 87%
U-251
  growth at 0.01 µM: 96%
MDA-MB-468
  growth at 0.01 µM: 97%
SK-MEL-5
  growth at 100 µM: -70%
NCI-H322M [8]
  IC50: 0.93 µM
NCI-H322M [8]; read-out: GI50
  GI50: 0.933 µM
NCI-H322M [8]; read-out: TGI
  TGI: 10.9 µM
NCI-H322M [8]; read-out: pGI50 (converted)
  GI50: 0.933 µM
NCI-H322M [8]; [10]
  CC50: 46.8 µM
NCI-H322M [8]; read-out: pTGI (converted)
  TGI: 11 µM
Hs-578T
  growth at 0.1 µM: 95%
HL-60(TB)
  growth at 0.1 µM: 88%
UACC-62
  growth at 0.1 µM: 92%
OVCAR-3
  growth at 0.01 µM: 105%
SW-620
  growth at 0.1 µM: 94%
IGROV-1
  IC50: 0.57 µM
IGROV-1; read-out: GI50
  GI50: 0.572 µM
IGROV-1; [9]
  CC50: > 100 µM
IGROV-1; read-out: TGI
  TGI: 12.6 µM
IGROV-1; read-out: pGI50 (converted)
  GI50: 0.575 µM
IGROV-1; [10]
  CC50: > 100 µM
IGROV-1; read-out: pTGI (converted)
  TGI: 12.6 µM
CAKI-1
  growth at 0.1 µM: 95%

## COc1cc(Cl)cc(-c2nn(-c3cccc(NC(=O)Nc4ccc(Cl)c(C(F)(F)F)c4)c3)cc2-c2ccncc2)c1
UO-31
  growth at 100 µM: -50%
NCI-H322M [1]
  growth at 0.01 µM: 96%
BT-549 [2]
  growth at 0.01 µM: 92%
SNB-19 [3]
  growth at 0.1 µM: 95%
KM12; read-out: GI50
  GI50: 0.555 µM
KM12; [9]
  CC50: 4 µM
KM12; read-out: TGI
  TGI: 44.4 µM
KM12; read-out: pGI50 (converted)
  GI50: 0.55 µM
KM12; [10]
  CC50: 40.7 µM
KM12; read-out: pTGI (converted)
  TGI: 4.47 µM
NCI-H522
  growth at 1 µM: 34%
MOLT-4
  growth at 1 µM: 58%
T47D
  growth at 0.01 µM: 98%
CCRF-CEM [4]
  growth at 100 µM: -29%
HCT-15
  growth at 0.1 µM: 54%
SK-MEL-28
  growth at 1 µM: 85%
M14
  growth at 0.1 µM: 96%
BT-549 [5]; read-out: GI50
  GI50: 2.38 µM
BT-549 [5]; [9]
  CC50: 25.8 µM
BT-549 [5]; read-out: TGI
  TGI: 65.5 µM
BT-549 [5]; read-out: pGI50 (converted)
  GI50: 2.4 µM
BT-549 [5]; [10]
  CC50: 28.8 µM
BT-549 [5]; read-out: pTGI (converted)
  TGI: 6.61 µM
ACHN; read-out: GI50
  GI50: 0.752 µM
ACHN; [9]
  CC50: > 100 µM
ACHN; read-out: TGI
  TGI: 10.2 µM
ACHN; read-out: pGI50 (converted)
  GI50: 0.759 µM
ACHN; [10]
  CC50: > 100 µM
ACHN; read-out: pTGI (converted)
  TGI: 14.5 µM
786-0; read-out: GI50
  GI50: 1.59 µM
786-0; [9]
  CC50: 15.2 µM
786-0; read-out: TGI
  TGI: 42.7 µM
786-0; read-out: pGI50 (converted)
  GI50: 1.58 µM
786-0; [10]
  CC50: 15.1 µM
786-0; read-out: pTGI (converted)
  TGI: 9.77 µM
SF-295
  growth at 100 µM: -82%
SNB-19 [6]
  growth at 100 µM: -25%
SK-MEL-2
  growth at 0.1 µM: 52%
CCRF-CEM [7]
  growth at 0.01 µM: 97%
U-251
  growth at 0.01 µM: 98%
MDA-MB-468
  growth at 0.01 µM: 92%
SK-MEL-5
  growth at 100 µM: -77%
NCI-H322M [8]; read-out: GI50
  GI50: 3.38 µM
NCI-H322M [8]; [9]
  CC50: > 100 µM
NCI-H322M [8]; read-out: TGI
  TGI: 24 µM
NCI-H322M [8]; read-out: pGI50 (converted)
  GI50: 3.39 µM
NCI-H322M [8]; [10]
  CC50: > 100 µM
NCI-H322M [8]; read-out: pTGI (converted)
  TGI: 25.1 µM
Hs-578T
  growth at 0.1 µM: 90%
HL-60(TB)
  growth at 0.1 µM: 91%
UACC-62
  growth at 0.1 µM: 93%
OVCAR-3
  growth at 0.01 µM: 91%
SW-620
  growth at 0.1 µM: 96%
IGROV-1; read-out: GI50
  GI50: 3.2 µM
IGROV-1; [9]
  CC50: > 100 µM
IGROV-1; read-out: TGI
  TGI: 29.1 µM
IGROV-1; read-out: pGI50 (converted)
  GI50: 3.24 µM
IGROV-1; [10]
  CC50: > 100 µM
IGROV-1; read-out: pTGI (converted)
  TGI: 3.55 µM
CAKI-1
  growth at 0.1 µM: 99%
